Measured values from US20090118332A1, “Therapeutic Agents - 551” (AstraZeneca AB, priority 2006, published 2009).

target: T1, human Fatty Acid Synthase (Homo sapiens, UniProt P49327); assay: Human FAS enzyme assay (decrease in NADPH fluorescence); assay type: biochemical; conditions: % inhibition at a concentration of 100 μmolar
T1 construct: made in house
Outline: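 In-house human FAS was preincubated with compound and NADPH for 15 min at room temperature in 0.1 M Tris pH 7.5 with EDTA, glutathione and BSA. Malonyl CoA and acetyl CoA (500 μM and 150 μM in the added mix) were then added for 60 min. IC50 came from time-zero-subtracted NADPH fluorescence (340/460 nm).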

T1 sequence (P49327 whole entry): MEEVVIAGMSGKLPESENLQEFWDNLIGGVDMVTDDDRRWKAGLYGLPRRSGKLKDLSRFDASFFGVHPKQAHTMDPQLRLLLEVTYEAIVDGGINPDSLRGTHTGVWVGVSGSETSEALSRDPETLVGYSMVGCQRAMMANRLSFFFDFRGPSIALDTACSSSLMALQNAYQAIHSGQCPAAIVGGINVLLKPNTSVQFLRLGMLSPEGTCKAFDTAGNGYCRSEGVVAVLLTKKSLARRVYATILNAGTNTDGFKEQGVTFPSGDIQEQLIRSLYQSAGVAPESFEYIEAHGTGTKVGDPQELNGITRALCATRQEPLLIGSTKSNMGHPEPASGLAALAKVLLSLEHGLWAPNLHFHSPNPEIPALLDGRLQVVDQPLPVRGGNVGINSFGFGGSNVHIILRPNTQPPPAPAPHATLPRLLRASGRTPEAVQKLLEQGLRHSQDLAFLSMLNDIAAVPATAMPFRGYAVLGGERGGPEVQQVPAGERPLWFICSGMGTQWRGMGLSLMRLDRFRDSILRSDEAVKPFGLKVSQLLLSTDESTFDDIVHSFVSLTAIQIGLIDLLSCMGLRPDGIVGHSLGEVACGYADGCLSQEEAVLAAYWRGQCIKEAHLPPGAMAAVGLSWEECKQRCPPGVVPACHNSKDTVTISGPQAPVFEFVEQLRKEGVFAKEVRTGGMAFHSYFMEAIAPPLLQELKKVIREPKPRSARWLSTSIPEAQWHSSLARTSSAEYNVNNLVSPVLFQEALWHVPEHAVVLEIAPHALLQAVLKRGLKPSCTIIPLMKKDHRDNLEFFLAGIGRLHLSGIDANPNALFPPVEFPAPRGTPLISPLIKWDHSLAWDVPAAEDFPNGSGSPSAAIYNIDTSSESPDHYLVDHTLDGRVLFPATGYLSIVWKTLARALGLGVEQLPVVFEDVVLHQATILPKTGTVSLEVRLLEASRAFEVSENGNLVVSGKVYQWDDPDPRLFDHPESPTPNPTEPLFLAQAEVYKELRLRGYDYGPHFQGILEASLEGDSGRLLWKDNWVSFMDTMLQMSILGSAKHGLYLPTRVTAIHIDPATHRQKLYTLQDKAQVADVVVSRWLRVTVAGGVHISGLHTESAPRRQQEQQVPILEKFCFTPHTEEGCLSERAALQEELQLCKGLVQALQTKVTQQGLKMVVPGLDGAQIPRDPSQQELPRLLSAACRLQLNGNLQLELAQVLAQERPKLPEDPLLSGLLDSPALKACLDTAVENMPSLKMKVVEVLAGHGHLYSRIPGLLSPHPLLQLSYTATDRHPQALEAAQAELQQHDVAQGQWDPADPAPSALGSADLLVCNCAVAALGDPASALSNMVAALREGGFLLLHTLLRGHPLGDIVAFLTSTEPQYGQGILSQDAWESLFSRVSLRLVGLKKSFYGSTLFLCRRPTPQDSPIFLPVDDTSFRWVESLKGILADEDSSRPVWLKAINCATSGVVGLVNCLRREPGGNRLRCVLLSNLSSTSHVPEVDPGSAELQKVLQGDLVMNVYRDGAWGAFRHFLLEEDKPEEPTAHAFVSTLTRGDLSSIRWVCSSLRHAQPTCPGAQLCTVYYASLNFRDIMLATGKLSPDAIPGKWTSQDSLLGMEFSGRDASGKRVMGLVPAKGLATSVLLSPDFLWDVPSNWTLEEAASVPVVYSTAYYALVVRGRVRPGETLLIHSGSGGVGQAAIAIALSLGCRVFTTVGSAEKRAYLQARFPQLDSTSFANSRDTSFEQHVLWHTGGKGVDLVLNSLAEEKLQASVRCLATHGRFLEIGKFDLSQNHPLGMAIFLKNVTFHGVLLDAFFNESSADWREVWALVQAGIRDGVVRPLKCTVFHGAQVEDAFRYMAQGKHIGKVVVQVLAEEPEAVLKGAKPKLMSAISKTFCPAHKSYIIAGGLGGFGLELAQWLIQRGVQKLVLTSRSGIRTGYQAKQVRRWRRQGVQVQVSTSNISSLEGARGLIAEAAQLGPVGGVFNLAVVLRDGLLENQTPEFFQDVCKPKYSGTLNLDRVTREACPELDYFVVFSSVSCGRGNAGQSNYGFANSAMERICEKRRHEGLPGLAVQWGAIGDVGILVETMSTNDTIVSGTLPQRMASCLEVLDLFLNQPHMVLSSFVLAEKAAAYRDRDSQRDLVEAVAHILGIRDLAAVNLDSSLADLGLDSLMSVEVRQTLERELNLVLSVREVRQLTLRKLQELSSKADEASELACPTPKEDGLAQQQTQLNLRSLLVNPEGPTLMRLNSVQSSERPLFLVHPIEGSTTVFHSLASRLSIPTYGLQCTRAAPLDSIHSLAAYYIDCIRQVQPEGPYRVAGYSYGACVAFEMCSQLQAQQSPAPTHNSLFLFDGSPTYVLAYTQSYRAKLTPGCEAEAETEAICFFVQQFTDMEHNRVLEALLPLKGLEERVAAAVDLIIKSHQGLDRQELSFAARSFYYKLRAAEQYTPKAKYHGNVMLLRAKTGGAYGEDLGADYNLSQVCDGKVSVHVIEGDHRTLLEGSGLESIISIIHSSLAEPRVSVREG

SMILES	inhibition at 100 µM [%]
CC(=O)NCCN(C)C(=O)Nc1cc(C(=O)N2CCC(c3ccc(C#N)cc3)CC2)ccc1C [Example 401, N-[2-[[5-[4-(4-cyanophenyl)piperidine-1-carbonyl]-2-methylphenyl]carbamoyl-methylamino]ethyl]acetamide]	65.7
CCS(=O)(=O)NCCN(C)C(=O)Nc1cc(C(=O)N2CCC(c3ccc(C#N)cc3)CC2)ccc1C [Example 402, 3-[5-[4-(4-cyanophenyl)piperidine-1-carbonyl]-2-methylphenyl]-1-[2-(ethylsulfonylamino)ethyl]-1-methylurea]	64.6
Cc1ccc(C(=O)N2CCC(c3ccc(C#N)cc3)CC2)cc1NC(=O)NC1CCC(C(=O)O)CC1 (stereo not drawn) [Example 406, 4-[[5-[4-(4-cyanophenyl)piperidine-1-carbonyl]-2-methylphenyl]carbamoylamino]cyclohexane-1-carboxylic acid]	93.4
Cc1ccc(C(=O)N2CCC(c3ccc(C#N)cc3)CC2)cc1NC(=O)NCCCC(=O)O [Example 407, 4-[[5-[4-(4-cyanophenyl)piperidine-1-carbonyl]-2-methylphenyl]carbamoylamino]butanoic acid]	104
Cc1ccc(C(=O)N2CCC(c3ccc(C#N)cc3)CC2)cc1NC(=O)NCC(=O)O [Example 408, 2-[[5-[4-(4-cyanophenyl)piperidine-1-carbonyl]-2-methylphenyl]carbamoylamino]acetic acid]	95.7
Cc1cc(C)c(C(=O)N2CCC(c3ccc(C#N)cc3)CC2)cc1NC(=O)NCc1ccccn1 [Example 409, 1-[5-[4-(4-cyanophenyl)piperidine-1-carbonyl]-2,4-dimethylphenyl]-3-(pyridin-2-ylmethyl)urea]	96.9
Cc1cc(C)c(C(=O)N2CCC(c3ccc(C#N)cc3)CC2)cc1NC(=O)NC1CC1 [Example 411, 1-[5-[4-(4-cyanophenyl)piperidine-1-carbonyl]-2,4-dimethylphenyl]-3-cyclopropylurea]	90
COCCNC(=O)Nc1cc(C(=O)N2CCC(c3ccc(C#N)cc3)CC2)c(C)cc1C [Example 412, 1-[5-[4-(4-cyanophenyl)piperidine-1-carbonyl]-2,4-dimethylphenyl]-3-(2-methoxyethyl)urea]	89.9

The remaining lines, values ahead:

inhibition at 100 µM [%]	SMILES
79.9	CC(C)NC(=O)Nc1cc(C(=O)N2CCC(c3ccc(C#N)cc3)CC2)ccc1CS(C)(=O)=O [Example 403, 3-[5-[4-(4-cyanophenyl)piperidine-1-carbonyl]-2-(methylsulfonylmethyl)phenyl]-1-propan-2-ylurea]
76.5	Cc1ccc(NC(=O)NC(C)C)cc1C(=O)N1CCC(c2ccc(C#N)cc2)CC1 [Example 404, 1-[3-[4-(4-cyanophenyl)piperidine-1-carbonyl]-4-methylphenyl]-3-propan-2-ylurea]
66.8	CSc1ccc(NC(=O)NC(C)C)cc1C(=O)N1CCC(c2ccc(C#N)cc2)CC1 [Example 405, 3-[3-[4-(4-cyanophenyl)piperidine-1-carbonyl]-4-methylsulfanylphenyl]-1-propan-2-ylurea]
93.7	CCNC(=O)Nc1cc(C(=O)N2CCC(c3ccc(C#N)cc3)CC2)c(C)cc1C [Example 410, 3-[5-[4-(4-cyanophenyl)piperidine-1-carbonyl]-2,4-dimethylphenyl]-1-ethylurea]
101	C#CCNC(=O)Nc1cc(C(=O)N2CCC(c3ccc(C#N)cc3)CC2)c(C)cc1C [Example 413, 1-[5-[4-(4-cyanophenyl)piperidine-1-carbonyl]-2,4-dimethylphenyl]-3-prop-2-ynylurea]
83.6	Cc1ccc(NC(=O)NCc2ccccn2)cc1C(=O)N1CCC(c2ccc(C#N)cc2)CC1 [Example 414, 1-[3-[4-(4-cyanophenyl)piperidine-1-carbonyl]-4-methylphenyl]-3-(pyridin-2-ylmethyl)urea]
78.2	Cc1ccc(NC(=O)NC2CC2)cc1C(=O)N1CCC(c2ccc(C#N)cc2)CC1 [Example 415, 1-[3-[4-(4-cyanophenyl)piperidine-1-carbonyl]-4-methylphenyl]-3-cyclopropylurea]
90.8	CCOCCCNC(=O)Nc1ccc(C)c(C(=O)N2CCC(c3ccc(C#N)cc3)CC2)c1 [Example 416, 3-[3-[4-(4-cyanophenyl)piperidine-1-carbonyl]-4-methylphenyl]-1-(3-ethoxypropyl)urea]
85.1	COCCNC(=O)Nc1ccc(C)c(C(=O)N2CCC(c3ccc(C#N)cc3)CC2)c1 [Example 417, 1-[3-[4-(4-cyanophenyl)piperidine-1-carbonyl]-4-methylphenyl]-3-(2-methoxyethyl)urea]
67.3	C#CCNC(=O)Nc1ccc(C)c(C(=O)N2CCC(c3ccc(C#N)cc3)CC2)c1 [Example 418, 1-[3-[4-(4-cyanophenyl)piperidine-1-carbonyl]-4-methylphenyl]-3-prop-2-ynylurea]

same assay, conditions: FAS enzyme assay, IC50 from fitted sigmoid curves

SMILES	IC50, inhibition of human Fatty Acid Synthase
COC(=O)C(C)(C)NC(=O)Nc1cc(C(=O)N2CCC(c3ccc(C#N)cc3)CC2)ccc1C [Methyl 2-[[5-[4-(4-cyanophenyl)piperidine-1-carbonyl]-2-methylphenyl]carbamoylamino]-2-methylpropanoate]	do not have IC50s in the range of about 0.001 μM to about 30 μM
COC(=O)C(Cc1ccc(F)cc1)NC(=O)Nc1cc(C(=O)N2CCC(c3ccc(C#N)cc3)CC2)ccc1C (stereo not drawn) [Methyl 2-[[5-[4-(4-cyanophenyl)piperidine-1-carbonyl]-2-methylphenyl]carbamoylamino]-3-(4-fluorophenyl)propanoate]	do not have IC50s in the range of about 0.001 μM to about 30 μM
COC(=O)C(CCn1cnnn1)NC(=O)Nc1cc(C(=O)N2CCC(c3ccc(C#N)cc3)CC2)ccc1C (stereo not drawn) [Methyl 2-[[5-[4-(4-cyanophenyl)piperidine-1-carbonyl]-2-methylphenyl]carbamoylamino]-4-(tetrazol-1-yl)butanoate]	do not have IC50s in the range of about 0.001 μM to about 30 μM
COC(=O)[C@@H](NC(=O)Nc1cc(C(=O)N2CCC(c3ccc(C#N)cc3)CC2)ccc1C)c1ccccc1 [Methyl (2S)-2-[[5-[4-(4-cyanophenyl)piperidine-1-carbonyl]-2-methylphenyl]carbamoylamino]-2-phenylacetate]	do not have IC50s in the range of about 0.001 μM to about 30 μM
COC(=O)[C@H](Cc1cn(C)cn1)NC(=O)Nc1cc(C(=O)N2CCC(c3ccc(C#N)cc3)CC2)ccc1C [Methyl (2S)-2-[[5-[4-(4-cyanophenyl)piperidine-1-carbonyl]-2-methylphenyl]carbamoylamino]-3-(1-methylimidazol-4-yl)propanoate]	do not have IC50s in the range of about 0.001 μM to about 30 μM
COC(=O)[C@@H](NC(=O)Nc1cc(C(=O)N2CCC(c3ccc(C#N)cc3)CC2)ccc1C)C(C)C [Methyl (2S)-2-[[5-[4-(4-cyanophenyl)piperidine-1-carbonyl]-2-methylphenyl]carbamoylamino]-3-methylbutanoate]	do not have IC50s in the range of about 0.001 μM to about 30 μM
COC(=O)[C@H](CCc1nnn[nH]1)NC(=O)Nc1cc(C(=O)N2CCC(c3ccc(C#N)cc3)CC2)ccc1C [Methyl (2S)-2-[[5-[4-(4-cyanophenyl)piperidine-1-carbonyl]-2-methylphenyl]carbamoylamino]-4-(1H-tetrazol-5-yl)butanoate]	do not have IC50s in the range of about 0.001 μM to about 30 μM
Cc1ccc(C(=O)N2CCC(c3ccc(C#N)cc3)CC2)cc1NC(=O)N(C)CCNC(=O)C(C)C [N-[2-[[5-[4-(4-cyanophenyl)piperidine-1-carbonyl]-2-methylphenyl]carbamoyl-methylamino]ethyl]-2-methylpropanamide]	do not have IC50s in the range of about 0.001 μM to about 30 μM
Cc1ccc(C(=O)N2CCC(c3ccc(C#N)cc3)CC2)cc1NC(=O)N1CCS(=O)(=O)CC1 [N-[5-[4-(4-cyanophenyl)piperidine-1-carbonyl]-2-methylphenyl]-1,1-dioxo-1,4-thiazinane-4-carboxamide]	do not have IC50s in the range of about 0.001 μM to about 30 μM
